Data on seven compounds can be found in patent US10603298B2, “Succinate dehydrogenase inhibitors (SDHi's)” (Medical Research Council, priority 2014, dated 2020).

For assay [1], the system named is succinate accumulation in the ischaemic myocardium. Briefly: Succinate accumulation in the ischaemic myocardium in vivo (LC-MS). As to conditions: i.v. infusion in vivo, mouse; 30 min ischaemia. The protocol:
For the in vivo heart IR model an open-chest, in situ heart model was used^31,32. Male mice (8-10 weeks; Charles River Laboratories, UK) were anaesthetised with sodium pentobarbital (70 mg/kg intraperitoneally (i.p.)), intubated endotracheally and ventilated with 3 cm H2O positive-end expiratory pressure. Adequacy of anaesthesia was monitored using corneal and withdrawal reflexes. Ventilation frequency was kept at 110 breaths per minute with tidal volume between 125-150 μL. A thoracotomy was performed and the heart exposed by stripping the pericardium. A prominent branch of the left anterior descending coronary artery (LAD) was surrounded by a 7-0 Prolene suture that was then passed through a small plastic tube. Ischaemia was induced by tightening the tubing against the heart surface. To assess metabolites during IR in vivo, mice were divided into three groups: 30 min ischaemia, 30 min ischaemia plus 5 min reperfusion and 30 min sham-operation in which the suture was placed but the LAD was not occluded. At the end of each protocol tissue was removed from the at risk and peripheral areas of the heart, selected visually by comparing white versus red tissue, and snap-frozen in liquid nitrogen. Sham-operated tissue was removed from the presumed risk zone. Infarct size was assessed after 30 min of ischaemia followed by 120 min reperfusion using 2% triphenyltetrazolium chloride staining and is expressed as a percentage of the risk zone^33. […] For the LC separation, column A was Sequant Zic-Hilic (150 mm×4.6 mm, internal diameter 3.5 μm) with a guard column (20 mm×2.1 mm 3.5 μm) from HiChrom, Reading, UK. […] (150 mm×2.1 mm i.d. 3.5 μm) with guard column (20 mm×2.1 mm i.d. […]) from HiChrom, Reading, UK. […] Spectra were analysed using both targeted and untargeted approaches. For the targeted approach spectra were analysed using XCalibur Qual Browser and XCalibur Quan Browser softwares (Thermo Scientific) by referencing to an internal library of compounds. […] The arrays of spectra were then statistically analysed using the functions explore.data and univariate of the R package mum a^40.

The next assay deals with complex II. As to conditions: cited from earlier work; for concentration to achieve half-maximal inhibition: Drose et al 2011.
Assay [2] deals with heart, simulated ischemia-reperfusion injury. As to conditions: Wojtovich et al 2009; mKATP channel dependent mechanism; cited from earlier work.
In assay [3] the test system is ischaemic succinate accumulation (GABA shunt). In words: Ex vivo perfused mouse heart, no flow ischaemia: succinate abundance (LC-MS). Particulars: 30 min no flow ischaemia, vigabatrin 100, 300, 700 μM. Here is the method:
FIG. 9: Effect of GABA transaminase inhibition by vigabatrin on GABA shunt and CAC metabolites in the ischaemic myocardium. Perfused mouse hearts were subjected to 30 min no flow ischaemia±continuous infusion of vigabatrin (Vig; 100, 300, and 700 μM) 10 min prior to ischaemia. Heart tissue was snap frozen and a, GABA and b, succinate abundance quantified relative to normoxic levels by LC-MS. n=3, * p<0.05.
Mice were heparinised (200 U i.p.) and anaesthetised with sodium pentobarbital (100 mg/kg i.p.). […]
Equal amounts wet weight murine tissue were lysed in 250 μL extraction solution (ES; 30% acetonitrile, 50% methanol and 20% water) per 10 mg tissue in Precellysis 24 vials, following the manufacturer's instructions. […] For the LC separation, column A was Sequant Zic-Hilic (150 mm×4.6 mm, internal diameter 3.5 μm) with a guard column (20 mm×2.1 mm 3.5 μm) from HiChrom, Reading, UK. […] Gradient: 0-3 min 80% B, 25 min 20% B, 26 min 80% B, 36 min 80% B. Column B was sequant Zic-pHilic (150 mm×2.1 mm i.d. 3.5 μm) with guard column (20 mm×2.1 mm i.d. 3.5 Mm) from HiChrom, Reading, UK. […] Spectra were analysed using both targeted and untargeted approaches. For the targeted approach spectra were analysed using XCalibur Qual Browser and XCalibur Quan Browser softwares (Thermo Scientific) by referencing to an internal library of compounds. […]

The test system of assay [4] is ischemia-reperfusion injury. Particulars: chemical preconditioning, rats; Hu et al, Hirata et al; cited from earlier work.

With `NOCC(=O)O` [AOA, aminooxyacetate], the “succinate accumulation in the ischaemic myocardium” value in assay [1] is on record as “decreased ischaemic succinate levels”.

Consider `O=C(O)CC(=O)O` [malonate], for which the “concentration to achieve half-maximal inhibition” value in the assay with complex II is “millimolar levels”.

For `COc1[nH]c(=O)c(C(=O)[C@@H](C)C[C@H](C)[C@@H](Cl)CCl)c(O)c1OC` [atpennin A5], in assay [2], the “protection of the heart against simulated ischemia-reperfusion injury” value is given as “protects the heart against simulated ischemia-reperfusion injury”. Moreover, in the assay with complex II, the “concentration to achieve half-maximal inhibition” value is reported as “nanomolar levels” and the “reversibility of complex II inhibition” value was “irreversible”.

For `NC(=O)c1ncn([C@@H]2O[C@H](CO)[C@@H](O)[C@H]2O)c1N` [AICAR, 5-amino-1-β-D-ribofuranosyl-imidazole-4-carboxamide], in assay [1], the “succinate accumulation in the ischaemic myocardium” value was “decreased ischaemic succinate levels”.

For the compound `C=CC(N)CCC(=O)O` (stereo not shown) [vigabatrin], the ischaemic succinate accumulation entry in assay [3] is recorded as “did not decrease ischaemic succinate accumulation”.

Consider `O=C(CC(=O)C(F)(F)F)c1cccs1` [TTFA, 2-thenoyltrifluoroacetone], for which the “reversibility of complex II inhibition” value with complex II is “irreversible”.

`O=C(O)CC[N+](=O)[O-]` [3-nitropropionate]: in assay [4], the ischemia-reperfusion injury result was “reduced ischemia-reperfusion injury”. Further, the “reversibility of complex II inhibition” value in the assay with complex II is “irreversible”.
